test: Compound was evaluated for its inhibition of LPS-induced mouse B-lymphocyte proliferation. The result is expressed as relative IC50 i.e., IC50 of compound / All Trans Retinoic Acid IC50; type: functional

Row | Compound | Relative IC50
1 | CC1=C(/C=C/C(C)=C/C=C/C(C)=C/C(=O)O)C(C)(C)CCC1 [TRETINOIN] | 0.65
2 | Cc1ccc(C)c2oc(-c3ccc(-c4ccc(C(=O)O)cc4)[nH]3)cc12 | 0.76
3 | O=C(O)c1ccc(-c2ccc(-c3cc4c(Cl)ccc(Cl)c4o3)[nH]2)cc1 | 1.3

test: Inhibition of LPS-induced mouse B-lymphocyte proliferation. The result is expressed as relative IC50 i.e., IC50 of compound/all-trans retinoic acid IC50.; type: functional

Row | Compound | Relative IC50
4 | CC1=C(/C=C/C(C)=C/C=C/C(C)=C/C(=O)O)C(C)(C)CCC1 [TRETINOIN] | 1
5 | Cc1cc(C)c2oc(-c3ccc(-c4ccc(C(=O)O)cc4Br)[nH]3)cc2c1C | 42
6 | Cc1cc(C)c2oc(-c3ccc(-c4ccc(C(=O)O)s4)[nH]3)cc2c1C | 230
7 | Cc1ccc(C)c2oc(-c3ccc(-c4ccc(C(=O)O)cc4Br)[nH]3)cc12 | 18
8 | O=C(O)c1ccc(-c2ccc(-c3cc4c(Cl)ccc(Cl)c4o3)[nH]2)c(F)c1 | 64
9 | O=C(O)c1ccc(-c2ccc(-c3cc4cccc(Cl)c4o3)[nH]2)c(Br)c1 | 31
10 | O=C(O)c1ccc(-c2ccc(-c3cc4cccc(Cl)c4o3)[nH]2)c(F)c1 | 95
11 | COc1cc(C(=O)O)ccc1-c1ccc(-c2cc3cccc(Cl)c3o2)[nH]1 | 170
12 | COc1cc(C(=O)O)ccc1-c1ccc(-c2cc3c(Cl)ccc(Cl)c3o2)[nH]1 | 210
13 | Cc1ccc(Cl)c2sc(-c3ccc(-c4ccc(C(=O)O)s4)[nH]3)cc12 | 480
14 | CCc1ccc(OC)c2cc(-c3ccc(-c4ccc(C(=O)O)cc4Br)[nH]3)oc12 | 140
15 | Cc1ccc(C)c2oc(-c3ccc(-c4ccc(C(=O)O)cc4F)[nH]3)cc12 | 15
16 | O=C(O)c1ccc(-c2ccc(-c3cc4c(Cl)ccc(Cl)c4o3)[nH]2)c(Br)c1 | 45
17 | Cc1ccc(Cl)c2oc(-c3ccc(-c4ccc(C(=O)O)cc4Br)[nH]3)cc12 | 16
18 | O=C(O)c1ccc(-c2ccc(-c3cc4cccc(Cl)c4o3)[nH]2)c(Cl)c1 | 300
19 | Cc1ccc(C)c2oc(-c3ccc(-c4ccc(C(=O)O)s4)[nH]3)cc12 | 42
20 | O=C(O)c1ccc(-c2ccc(-c3cc4c(Cl)ccc(Cl)c4o3)[nH]2)c(Cl)c1 | 240
21 | O=C(O)c1ccc(-c2ccc(-c3cc4c(Cl)ccc(Cl)c4o3)[nH]2)s1 | 62
22 | O=C(O)c1ccc(-c2ccc(-c3cc4ccc5ccccc5c4o3)[nH]2)c(Br)c1 | 1500
23 | CCCc1cccc2cc(-c3ccc(-c4ccc(C(=O)O)s4)[nH]3)sc12 | 600
24 | Cc1ccc(C)c2oc(-c3ccc(-c4ccc(C(=O)O)cc4Cl)[nH]3)cc12 | 23
25 | Cc1ccc(C)c2oc(-c3ccc(-c4cccc(C(=O)O)c4)[nH]3)cc12 | 2100
26 | COc1cc(C(=O)O)ccc1-c1ccc(-c2cc3c(C)ccc(C)c3o2)[nH]1 | 47

test: Compound was evaluated for its inhibition of LPS-induced mouse B-lymphocyte proliferation; type: functional

Row | Compound | IC50 [nM]
27 | Cc1cc(C)c2oc(-c3ccc(-c4ccc(C(=O)O)cc4)[nH]3)cc2c1C | 2.2

test: Inhibition of LPS-induced mouse B-lymphocyte proliferation in relation to IC50 of all-trans retinoic acid.; type: functional

Row | Compound | Relative IC50
28 | CCCc1ccc(OC)c2cc(-c3ccc(-c4ccc(C(=O)O)c5ccccc45)[nH]3)oc12 | >1000
29 | CCCc1ccc(OC)c2cc(-c3ccc(-c4ccc(C(=O)O)s4)[nH]3)oc12 | >1000
30 | Cc1cc(-c2ccc(-c3cc4c(C)ccc(C)c4o3)[nH]2)c(C)cc1C(=O)O | >1000
31 | Cc1cc(-c2ccc(-c3cc4cc(Cl)cc(Cl)c4o3)[nH]2)c(C)cc1C(=O)O | >1000
32 | Cc1ccc(C)c2oc(-c3ccc(-c4ccc5cc(C(=O)O)ccc5c4)[nH]3)cc12 | >1000
33 | CCCc1cccc2cc(-c3ccc(-c4ccc5cc(C(=O)O)ccc5c4)[nH]3)oc12 | >1000
34 | Cc1cc(-c2ccc(-c3cc4c(C)c(C)cc(C)c4o3)[nH]2)c(C)cc1C(=O)O | >1000
35 | CCc1ccc(OC)c2cc(-c3ccc(-c4ccc5cc(C(=O)O)ccc5c4)[nH]3)oc12 | >1000
36 | Cc1ccc(C)c2oc(-c3ccc(-c4ccc(C(=O)O)c5ccccc45)[nH]3)cc12 | >1000
37 | Cc1cc(C)c2oc(-c3ccc(-c4ccc(C(=O)O)o4)[nH]3)cc2c1C | >1000
38 | Cc1ccc(C)c2oc(-c3ccc(-c4ccc(C(=O)O)o4)[nH]3)cc12 | >1000
39 | O=C(O)c1ccc(-c2ccc(-c3cc4cc(Cl)ccc4o3)[nH]2)o1 | >1000
40 | O=C(O)c1ccc(-c2ccc(-c3cc4cc(Cl)ccc4o3)[nH]2)c2ccccc12 | >1000
41 | CCCc1cc(OC)cc2cc(-c3ccc(-c4cc(C)c(C(=O)O)cc4C)[nH]3)oc12 | >1000
42 | Cc1cc(-c2ccc(-c3cc4cc(Cl)ccc4o3)[nH]2)c(C)cc1C(=O)O | >1000
43 | Cc1ccc(Cl)c2sc(-c3ccc(-c4ccc(C(=O)O)c5ccccc45)[nH]3)cc12 | >1000

Row | Compound | Relative IC50
44 | CCCc1ccc(OC)c2cc(-c3ccc(-c4ccc5cc(C(=O)O)ccc5c4)[nH]3)oc12 | >1000
45 | CCCc1cccc2cc(-c3ccc(-c4ccc(C(=O)O)c5ccccc45)[nH]3)sc12 | >1000
46 | CCCc1ccc(OC)c2cc(-c3ccc(-c4ccc(C(=O)O)o4)[nH]3)oc12 | >1000
47 | CCc1ccc(OC)c2cc(-c3ccc(-c4cc(C)c(C(=O)O)cc4C)[nH]3)oc12 | >1000
48 | CCc1ccc(OC)c2cc(-c3ccc(-c4ccc(C(=O)O)s4)[nH]3)oc12 | >1000
49 | O=C(O)c1cccc(-c2ccc(-c3cc4cccc(Cl)c4s3)[nH]2)c1 | >1000
50 | CCCc1cccc2cc(-c3ccc(-c4cc(C)c(C(=O)O)cc4C)[nH]3)oc12 | >1000
51 | Cc1cc(C)c2oc(-c3ccc(-c4ccc5cc(C(=O)O)ccc5c4)[nH]3)cc2c1C | >1000
52 | Cc1cc(C)c2oc(-c3ccc(-c4ccc(C(=O)O)c5ccccc45)[nH]3)cc2c1C | >1000
53 | CCc1ccc(OC)c2cc(-c3ccc(-c4ccc(C(=O)O)o4)[nH]3)oc12 | >1000
54 | CCc1ccc(OC)c2cc(-c3ccc(-c4ccc(C(=O)O)c5ccccc45)[nH]3)oc12 | >1000
55 | O=C(O)c1ccc2cc(-c3ccc(-c4cc5c(Cl)ccc(Cl)c5s4)[nH]3)ccc2c1 | >1000
56 | O=C(O)c1ccc(-c2ccc(-c3cc4cc(Cl)ccc4o3)[nH]2)s1 | >1000
57 | CCCc1ccc(OC)c2cc(-c3ccc(-c4cc(C)c(C(=O)O)cc4C)[nH]3)oc12 | >1000
58 | O=C(O)c1ccc(-c2ccc(-c3cc4c(Cl)ccc(Cl)c4s3)[nH]2)c2ccccc12 | >1000
59 | Cc1ccc(Cl)c2oc(-c3ccc(-c4ccc5cc(C(=O)O)ccc5c4)[nH]3)cc12 | >1000

Source: ChEMBL document CHEMBL1135843, “A library construction of 2,5-disubstituted pyrrole compounds by using solid/solution-phase syntheses” (Bioorg Med Chem Lett, 2002)
